The term Ki denotes the equilibrium dissociation constant of an inhibitor or competing ligand from its target.

The test system of data set [1] is mouse striatal and frontal cortex neurochemistry. Particulars: for dopamine or 5-HT neurochemistry and transmitter metabolites: (+)- versus (-)-enantiomer.
In data set [2] the target is bovine striatal adenosine receptors. Description: Displacement of [3H]-NECA (non-selective P1 ligand) binding to striatal membranes. A general note: Loss of bound radioactivity is the signal in a displacement assay; it reports binding, not function.
For data set [3] the following is noted: human, in vivo; cited from earlier work.
For data set [4], the system named is haloperidol-induced catalepsy. Description: Haloperidol-induced catalepsy in the rat. The following applies: 0.1-10 mg/kg p.o. 6 h prior to testing; haloperidol 0.2 mg/kg i.p.
Protocol: Evaluation of Potential Anti-Parkinsonian Activity in vivo Haloperidol-induced Catalepsy in the Rat
This method assessed the ability of an animal to respond to an externally imposed posture after receiving the neuroleptic dopamine D2 antagonist haloperidol.
Haloperidol (0.2 mg/kg) was obtained in injectable form and diluted to a final concentration using physiological saline. 3,7-Dimethyl-1-propargylxanthine(DMPX) (0, 3 mg/kg) was dissolved in saline. All drugs were administered in a volume of 2 ml/kg.
The test procedure was as follows:
Step I The rat was taken out of the home cage and placed on a table.
Step II The front paws of the rat were placed alternately on a 3 cm high wooden block.
Step III The front paws of the rat were placed alternately on a 9 cm high wooden block. […] Thus for any animal the highest score obtainable was 3.5 (cut-off score) reflecting total catalepsy.
Data from the experiment were analysed using Kruskal-Wallis ANOVA followed by Mann-Whitney U test when appropriate, and are expressed as means +/- standard error of the mean *p<0.05 versus vehicle control.
Data set [5] has as its target human recombinant (HEK-293) adenosine A3 receptor. Particulars: read-out: Ki adenosine A3; cited from earlier work.
Data set [6] addresses human recombinant (HEK-293) adenosine A2A receptor. The following applies: read-out: Ki adenosine A2A, cited from earlier work.
The target in another data set is adenosine A1 receptor. The following applies: read-out: Ki adenosine A1, cited from earlier work.
The next data set has as its system catalepsy. The following applies: cited from earlier work.
For data set [7], the system named is haloperidol-induced catalepsy. The following applies: literature; cited from earlier work.
For data set [8] the following is noted: 150 mg/day slow release oral, after one week; 10080 min; cited from earlier work.
For the next data set, the system named is Parkinson's disease. Particulars: 150 mg/day slow release oral, up to 12 weeks, cited from earlier work.

Like-named read-outs stand apart in the source and are kept apart here.

Turning to `O[C@H](c1cc(C(F)(F)F)nc2c(C(F)(F)F)cccc12)[C@@H]1CCCCN1` [(+) enantiomer, (+)-(11R,2'S)-α-2-piperidinyl-2,8-bis(trifluoromethyl)-4-quinolinemethanol], in data set [1] (100 mg/kg p.o., 24 h), the frontal cortex acetylcholine result is listed as “unaffected”; the “dopamine or 5-HT neurochemistry and transmitter metabolites” value is given as “No significant difference”. The Ki in data set [2] worked out at 38000 nM.
In the case of `O[C@@H](c1cc(C(F)(F)F)nc2c(C(F)(F)F)cccc12)[C@H]1CCCCN1` [(-) enantiomer, (-)-(11S,2'R)-α-2-piperidinyl-2,8-bis(trifluoromethyl)-4-quinolinemethanol], the half life in data set [3] is 14.4 days. Besides, in [1] (100 mg/kg p.o., 24 h), the frontal cortex acetylcholine result was “unaffected”; the “striatal acetylcholine content, (-)- versus (+)-enantiomer” value is recorded as “significantly higher”; the “striatal acetylcholine content, post-hoc Duncan's test between enantiomers” value is “between the (+)-enantiomer and the (-)-enantiomer (p<0.01)”; the “striatal acetylcholine content, post-hoc Duncan's test versus vehicle” value was “significant difference between vehicle and the (-)-enantiomer (p<0.05)”. Further, the “dopamine or 5-HT neurochemistry and transmitter metabolites” value in data set [1] (100 mg/kg p.o., 24 h) is given as “No significant difference”. Besides, the “acetylcholine release in striatum (suggested by FIG. 6)” value in data set [1] (inferred from tissue acetylcholine content) was “inhibits acetylcholine release in striatum”. In [2], this molecule displayed a Ki of 83 nM. Further, the “blocking of haloperidol-induced catalepsy” value in data set [4] was “capable of blocking haloperidol-induced catalepsy”.
In the case of `OC[C@H]1O[C@@H](n2cnc3c(NC4CCCCC4)ncnc32)[C@H](O)[C@@H]1O` [CHA], the figures for the Ki in data set [5] and in data set [6] were 7700 nM and 510 nM, respectively.
Turning to `CCCn1c(=O)c2c(nc(/C=C/c3ccc(OC)c(OC)c3)n2C)n(CCC)c1=O` [KF17837, (E)-8-(3,4-dimethoxystyryl)-1,3-dipropyl-7-methylxanthine], the Ki was 390 nM on adenosine A1 receptor (comparative literature data) and 8 nM in [6] (comparative literature data). Further, the “anticataleptic effects of a subthreshold dose of L-DOPA plus benserazide” value in the data set on catalepsy (combination) is listed as “potentiated”. The “catalepsy induced by haloperidol and reserpine” value in the data set with catalepsy (in vivo) was “reduced”. In the data set with catalepsy (oral administration), the “cataleptic responses induced by intracerebroventricular CGS 21680” value is “significantly ameliorated”.
With `CCn1c(=O)c2c(nc(/C=C/c3ccc(OC)c(OC)c3)n2C)n(CC)c1=O` [KW-6002], the Ki is 580 nM on adenosine A1 receptor and 13 nM in data set [6].
Take `N[C@@H](Cc1ccc(O)c(O)c1)C(=O)O` [L-DOPA]: the “blocking of haloperidol-induced catalepsy” value in [7] is on record as “block haloperidol-induced catalepsy”.
With `CNC(=O)[C@H]1O[C@@H](n2cnc3c(N)ncnc32)[C@H](O)[C@@H]1O` [MECA, 5'-N-methylcarboxamidoadenosine], the affinity in data set [2], expressed as Ki, was 58 nM.
`CCNC(=O)[C@H]1O[C@@H](n2cnc3c(N)ncnc32)[C@H](O)[C@@H]1O` [NECA, 5'-N-ethylcarboxamidoadenosine]: in data set [6], the inhibition constant Ki was […].
For the molecule `Cn1c(=O)c2[nH]cnc2n(C)c1=O` [THEOPHYLLINE, theophylline], in [8], the serum theophylline levels is recorded as 4.44 mg/L. The “mean objective disability scores” value in the data set with Parkinson's disease (15 patients) is “significant improvements”. The “patients reporting moderate or marked subjective improvement” value in the data set with Parkinson's disease (of 15 patients) is given as 11.
